Our source for the IC50 values is patent US8703768B2, “Nitrogen containing heteroaryl compounds” (Hoffmann-La Roche Inc., priority 2010, dated 2014).

For the assay, the target named is human PDE10A (Homo sapiens (Human), UniProt Q9Y233). Nature of the assay: human PDE10A full length Scintillation Proximity Assay (SPA). The note with it: 50 nM cGMP and 50 nM [3H]-cGMP, 20 minutes at room temperature; read-out: PDE10A inhibition IC50. It counts as biochemical. The essentials:
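Radiometric SPA read-out: after 20 min at room temperature with [^3H]-cGMP/cGMP substrate, zinc sulphate (18 mM) bead stop reagent added and counts read after 1 h. Non-specific signal defined without enzyme; full-length protein used.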

Chain of human PDE10A (Q9Y233 other isoform, or with tags, fused parts or gaps): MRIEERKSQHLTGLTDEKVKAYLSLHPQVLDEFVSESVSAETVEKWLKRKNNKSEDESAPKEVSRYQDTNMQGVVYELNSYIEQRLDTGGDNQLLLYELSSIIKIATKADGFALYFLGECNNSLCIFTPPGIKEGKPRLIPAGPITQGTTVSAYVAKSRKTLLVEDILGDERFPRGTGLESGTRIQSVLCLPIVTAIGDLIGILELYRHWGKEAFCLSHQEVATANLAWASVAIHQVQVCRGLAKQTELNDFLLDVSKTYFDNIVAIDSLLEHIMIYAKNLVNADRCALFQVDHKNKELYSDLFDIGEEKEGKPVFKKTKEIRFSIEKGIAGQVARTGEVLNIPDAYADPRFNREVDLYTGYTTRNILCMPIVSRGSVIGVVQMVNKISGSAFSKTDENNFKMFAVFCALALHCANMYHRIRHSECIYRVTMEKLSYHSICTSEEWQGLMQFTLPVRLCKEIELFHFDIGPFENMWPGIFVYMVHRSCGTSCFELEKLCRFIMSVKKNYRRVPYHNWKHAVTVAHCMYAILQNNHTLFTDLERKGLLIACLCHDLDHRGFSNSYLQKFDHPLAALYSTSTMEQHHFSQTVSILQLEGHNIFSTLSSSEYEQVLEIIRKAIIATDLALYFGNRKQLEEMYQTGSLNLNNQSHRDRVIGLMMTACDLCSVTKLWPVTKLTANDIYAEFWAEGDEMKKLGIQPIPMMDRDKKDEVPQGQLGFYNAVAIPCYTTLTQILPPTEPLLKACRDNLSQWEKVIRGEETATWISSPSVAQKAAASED

By IC50 is commonly meant the concentration that gives 50% inhibition. Consider `Cn1ncc(NC(=O)c2nc(C3CC3)cnc2Nc2cncnc2)c1C(=O)NC[C@@H]1CCCO1` [Example 255, 6-Cyclopropyl-3-(pyrimidin-5-ylamino)-pyrazine-2-carboxylic acid (1-methyl-5-{[(S)-1-(tetrahydro-furan-2-yl)methyl]-carbamoyl}-1H-pyrazol-4-yl)-amide], for which the IC50 was determined as 2.9 nM.
For `O=C(Nc1cc(F)cc(F)c1C(=O)N1CCC1)c1nc(C2CC2)cnc1Nc1cncnc1` [Example 323, 6-Cyclopropyl-3-(pyrimidin-5-ylamino)-pyrazine-2-carboxylic acid [2-(azetidine-1-carbonyl)-3,5-difluoro-phenyl]-amide], the IC50 is 35.9 nM.
For the compound `CC(C)(O)CNC(=O)c1cc(C(F)(F)F)ccc1NC(=O)c1nc(C2CC2)cnc1Nc1cncnc1` [Example 295, 6-Cyclopropyl-3-(pyrimidin-5-ylamino)-pyrazine-2-carboxylic acid [2-(2-hydroxy-2-methyl-propylcarbamoyl)-4-trifluoromethyl-phenyl]-amide], the IC50 is 2.3 nM.
On to `CNC(=O)c1nn(C)cc1NC(=O)c1nc(C2CCCO2)cnc1Nc1cncnc1` (stereo not drawn) [Example 96, 3-(Pyrimidin-5-ylamino)-6-(tetrahydro-furan-2-yl)-pyrazine-2-carboxylic acid (1-methyl-3-methylcarbamoyl-1H-pyrazol-4-yl)-amide], for which the IC50 was found to be 96 nM.
For the compound `CC(C)CNC(=O)c1c(NC(=O)c2nc(C3CC3)cnc2Nc2cncnc2)cnn1C` [Example 167, 6-Cyclopropyl-3-(pyrimidin-5-ylamino)-pyrazine-2-carboxylic acid (5-isobutylcarbamoyl-1-methyl-1H-pyrazol-4-yl)-amide], the 50% inhibitory concentration (IC50) was determined as 4.4 nM.
Take `CNC(=O)c1nn(C)cc1NC(=O)c1nc(C2CC2)cnc1Nc1cncnc1` [Example 5, 6-Cyclopropyl-3-(pyrimidin-5-ylamino)-pyrazine-2-carboxylic acid (1-methyl-3-methylcarbamoyl-1H-pyrazol-4-yl)-amide]: the IC50 was 5.2 nM.
Take `O=C(Nc1cncnc1C(=O)N1CCCC1)c1nc(C2CC2)cnc1Nc1cncnc1` [Example 219, 6-Cyclopropyl-3-(pyrimidin-5-ylamino)-pyrazine-2-carboxylic acid [4-(pyrrolidine-1-carbonyl)-pyrimidin-5-yl]-amide]: the IC50 is 52.3 nM.
Next, `CN(CC1CCCO1)C(=O)c1c(NC(=O)c2nc(C3CC3)cnc2Nc2cncnc2)cnn1C` (stereo not drawn) [Example 257, 6-Cyclopropyl-3-(pyrimidin-5-ylamino)-pyrazine-2-carboxylic acid {1-methyl-5-[methyl-(tetrahydro-furan-2-ylmethyl)-carbamoyl]-1H-pyrazol-4-yl}-amide]: 67.1 nM; `CC1CCCCN1C(=O)c1c(NC(=O)c2nc(C3CC3)cnc2Nc2cncnc2)cnn1C` (stereo not drawn) [Example 235, 6-Cyclopropyl-3-(pyrimidin-5-ylamino)-pyrazine-2-carboxylic acid [1-methyl-5-(2-methyl-piperidine-1-carbonyl)-1H-pyrazol-4-yl]-amide]: 34 nM; `O=C(Nc1cccnc1C(=O)N1CCCC1)c1nc(C2CC2)cnc1Nc1cncnc1` [Example 198, 6-Cyclopropyl-3-(pyrimidin-5-ylamino)-pyrazine-2-carboxylic acid [2-(pyrrolidine-1-carbonyl)-pyridin-3-yl]-amide]: 2.5 nM.
Regarding `O=C(Nc1cc(F)c(F)cc1C(=O)N1CCC1)c1nc(C2CC2)cnc1Nc1cncnc1` [Example 291, 6-Cyclopropyl-3-(pyrimidin-5-ylamino)-pyrazine-2-carboxylic acid [2-(azetidine-1-carbonyl)-4,5-difluoro-phenyl]-amide], the concentration for half-maximal inhibition (IC50) was found to be 31.2 nM.
Next, `CN(C)C(=O)c1ccc(F)cc1NC(=O)c1nc(C2CC2)cnc1Nc1cncnc1` [Example 294, 6-Cyclopropyl-3-(pyrimidin-5-ylamino)-pyrazine-2-carboxylic acid (2-dimethylcarbamoyl-5-fluoro-phenyl)-amide]: 19.3 nM; `Cn1ncc(NC(=O)c2nc(C3CC3)cnc2Nc2cncnc2)c1C(=O)NC1CCN(C(=O)OC(C)(C)C)C1` (stereo not drawn) [Example 236, 3-[(4-{[6-Cyclopropyl-3-(pyrimidin-5-ylamino)-pyrazine-2-carbonyl]-amino}-2-methyl-2H-pyrazole-3-carbonyl)-amino]-pyrrolidine-1-carboxylic acid tert-butyl ester]: 6.8 nM; `CNC(=O)c1c(NC(=O)c2nc(C(C)C)ncc2Nc2cccc(F)c2)cnn1C` [Example 188, 5-(3-Fluoro-phenylamino)-2-isopropyl-pyrimidine-4-carboxylic acid (1-methyl-5-methylcarbamoyl-1H-pyrazol-4-yl)-amide]: 51.7 nM.
Regarding `CN(C)C(=O)c1c(F)cccc1NC(=O)c1nc(C2CC2)cnc1Nc1cncnc1` [Example 308, 6-Cyclopropyl-3-(pyrimidin-5-ylamino)-pyrazine-2-carboxylic acid (2-dimethylcarbamoyl-3-fluoro-phenyl)-amide], the IC50 was determined as 0.9 nM.
`CNC(=O)c1c(NC(=O)c2nc(C(C)=O)cnc2Nc2cncnc2)cnn1C` [Example 184, 6-Acetyl-3-(pyrimidin-5-ylamino)-pyrazine-2-carboxylic acid (1-methyl-5-methylcarbamoyl-1H-pyrazol-4-yl)-amide]: the IC50 turned out to be 162 nM.
As to `Cn1ncc(NC(=O)c2nc(C3CC3)cnc2Nc2cncnc2)c1C(=O)N1CCCCC1` [Example 168, 6-Cyclopropyl-3-(pyrimidin-5-ylamino)-pyrazine-2-carboxylic acid [1-methyl-5-(piperidine-1-carbonyl)-1H-pyrazol-4-yl]-amide], the half-maximal inhibitory concentration (IC50) is 32.9 nM.
Regarding `CN(CC(F)(F)F)C(=O)c1c(NC(=O)c2nc(C3CC3)cnc2Nc2cncnc2)cnn1C` [Example 237, 6-Cyclopropyl-3-(pyrimidin-5-ylamino)-pyrazine-2-carboxylic acid {1-methyl-5-[methyl-(2,2,2-trifluoro-ethyl)-carbamoyl]-1H-pyrazol-4-yl}-amide], the IC50 is 93.4 nM.
With `CNC(=O)c1cc(OC)ccc1NC(=O)c1nc(C2CC2)cnc1Nc1cncnc1` [Example 225, 6-Cyclopropyl-3-(pyrimidin-5-ylamino)-pyrazine-2-carboxylic acid (4-methoxy-2-methylcarbamoyl-phenyl)-amide], the 50% inhibitory concentration (IC50) was 0.5 nM.
Consider `CCc1ccc(NC(=O)c2nc(C3CC3)cnc2Nc2cncnc2)c(C(=O)NCC(C)(C)O)n1` [Example 181, 6-Cyclopropyl-3-(pyrimidin-5-ylamino)-pyrazine-2-carboxylic acid [6-ethyl-2-(2-hydroxy-2-methyl-propylcarbamoyl)-pyridin-3-yl]-amide], for which the concentration for half-maximal inhibition (IC50) was found to be 0.4 nM.
Regarding `Cn1cc(NC(=O)c2nc(C3CC3)ccc2Nc2cncnc2)c(C(=O)N2CCNC(=O)C2)n1` [Example 47, 6-Cyclopropyl-3-(pyrimidin-5-ylamino)-pyridine-2-carboxylic acid [1-methyl-3-(3-oxo-piperazine-1-carbonyl)-1H-pyrazol-4-yl]-amide], the half-maximal inhibitory concentration (IC50) was found to be 13.2 nM.
Consider `COCCn1ncc(NC(=O)c2nc(C3CC3)ccc2Nc2cncnc2)c1C(=O)N(C)C` [Example 6, 6-Cyclopropyl-3-(pyrimidin-5-ylamino)-pyridine-2-carboxylic acid [5-dimethylcarbamoyl-1-(2-methoxy-ethyl)-1H-pyrazol-4-yl]-amide], for which the IC50 was 12.6 nM.
In the case of `CCN(CCO)C(=O)c1c(NC(=O)c2nc(C3CC3)cnc2Nc2cncnc2)cnn1C` [Example 230, 6-Cyclopropyl-3-(pyrimidin-5-ylamino)-pyrazine-2-carboxylic acid {5-[ethyl-(2-hydroxy-ethyl)-carbamoyl]-1-methyl-1H-pyrazol-4-yl}-amide], the half-maximal inhibitory concentration (IC50) was 118 nM.
As for `CNC(=O)c1c(NC(=O)c2nc(COC)ccc2Nc2cncnc2)cnn1CCOC` [Example 26, 6-Methoxymethyl-3-(pyrimidin-5-ylamino)-pyridine-2-carboxylic acid [1-(2-methoxy-ethyl)-5-methylcarbamoyl-1H-pyrazol-4-yl]-amide], the half-inhibitory concentration (IC50) worked out at 28.3 nM.
For the compound `Cn1ncc(NC(=O)c2nc(C3CC3)cnc2Nc2cncnc2)c1C(=O)N1CC(F)C1` [Example 174, 6-Cyclopropyl-3-(pyrimidin-5-ylamino)-pyrazine-2-carboxylic acid [5-(3-fluoro-azetidine-1-carbonyl)-1-methyl-1H-pyrazol-4-yl]-amide], the IC50 turned out to be 14.8 nM.
As to `Cn1ncc(NC(=O)c2nc(C3CC3)cnc2Nc2cncnc2)c1C(=O)NC1CCNC1` (stereo not drawn) [Example 251, 6-Cyclopropyl-3-(pyrimidin-5-ylamino)-pyrazine-2-carboxylic acid [1-methyl-5-(pyrrolidin-3-ylcarbamoyl)-1H-pyrazol-4-yl]-amide], the 50% inhibitory concentration (IC50) is 137 nM.
For the compound `Cc1ccc(NC(=O)c2nc(C3CC3)cnc2Nc2cncnc2)c(C(=O)NCC(C)(C)O)n1` [Example 183, 6-Cyclopropyl-3-(pyrimidin-5-ylamino)-pyrazine-2-carboxylic acid [2-(2-hydroxy-2-methyl-propylcarbamoyl)-6-methyl-pyridin-3-yl]-amide], the IC50 stood at 0.3 nM.
On to `O=C1CN(C(=O)c2ccncc2NC(=O)c2nc(C3CC3)ccc2Nc2cncnc2)CCN1` [Example 60, 6-Cyclopropyl-3-(pyrimidin-5-ylamino)-pyridine-2-carboxylic acid [4-(3-oxo-piperazine-1-carbonyl)-pyridin-3-yl]-amide], for which the 50% inhibitory concentration (IC50) turned out to be 232 nM.
For `CC(C)Cc1ncc(Nc2cncnc2)c(C(=O)Nc2cccnc2C(=O)NCC(C)(C)O)n1` [Example 331, 2-Isobutyl-5-(pyrimidin-5-ylamino)-pyrimidine-4-carboxylic acid [2-(2-hydroxy-2-methyl-propylcarbamoyl)-pyridin-3-yl]-amide], the concentration for half-maximal inhibition (IC50) is 3.1 nM.
Next, `CNC(=O)c1c(C)cccc1NC(=O)c1nc(C2CC2)cnc1Nc1cncnc1` [Example 224, 6-Cyclopropyl-3-(pyrimidin-5-ylamino)-pyrazine-2-carboxylic acid (3-methyl-2-methylcarbamoyl-phenyl)-amide]: 18.1 nM.
